From US4851521A, “Esters of hyaluronic acid” (priority 1985, dated 1989)

Tests used:
[1] = system: dextran-induced aseptic (exudative) phlogosis in rabbit eye; test: Anti-inflammatory activity: dextran-induced aseptic (exudative) phlogosis in rabbit eye; type: in vivo; conditions: for eyes without signs of phlogosis out of the total number of eyes treated: 3 drops every 6 hours, 4 treated eyes; for antiinflammatory activity (in words): compared with the corresponding cortisones
Description: 9 hyaluronic esters of cortisone, hydrocortisone and fluorocortisone (9 fluorohydrocortisone) identified by the code names HYC1-HYC9 were tested. Table 1 describes these compounds and gives the percentages of the number of carboxylic groups of HY which are esterified with the above corticosteroids, and where applicable the percentage esterified with simple aliphatic alcohols and those salified with alkaline metals (Na):
Aseptic (exudative) phlogosis was induced in 48 rabbits by intraocular injection of dextran (1% in saline, 0.1 ml). The various products were administered by instillation in the right eye (RE) of the rabbits, while in the left eye (LE) only vehicle was instilled.
The treament (3 drops every 6 hours) was begun immediately after the injection of dextran and was continued for 16 days.
Both eyes of each rabbit were observed through a slit lamp. In particular the following were examined: the state of the conjunctiva and corneal epithelium, the anterior chamber (presence of Tyndall effect), state of the iris and of the posterior segment of the eye. With a Goldmann lens, the state of the back of the eye was examined. The presence of signs of inflammation (hyperemia, exudate, cloudiness of the liquids, etc.) was recorded.
Values are expressed as percentages (number of eyes without signs of phlogosis out of the total number of eyes treated). In brackets are the number of treated eyes.

[2] = Absorption and bioavailability: plasma levels of hydrocortisone in rats; type: in vivo, male Sprague-Dawley rats
Description: Male Sprague-Dawley rats, with a body weight of 250-350 gr were used, obtained from Charles River-Calco (Como), fed ad libitum with water and compound feed in pellets, with the code name of 4RF 21, produced by "Italiana Mangimi", licensee of Charles River.
Hydrocortisone was administered in the form of sodium hemisuccinate salt at the dose of 1.34 mg/kg (corresponding to 1 mg/kg of hydrocortisone base) by general intravenous route and at the dose of 1.34 mg/kg and 2.68 mg/ kg (corresponding to 2 mg/ kg of hydrocortisone base) by subcutaneouos route (the i.v. route was considered in order to determine the pharmacokinetic parameters which serve as a comparison for the evaluation of absorption of any other administration route).
The three HYC derivatives were administered by subcutaneous route at the dose of 6.5 and 13 mg/kg (doses corresponding to about 1 and 2 mg/kg in hydrocortisone base). […] All the compounds were injected at a constant volume of 1 ml/kg.
After administration, 0.3 ml of blood was drawn from each animal by cardiac puncture in the presence of anticoagulant (sodium heparin).
Blood drawing times were as follows: *15 mins, 30 mins, 60 mins, 120 mins, 180 min, 300 mins, 360 mins, 420 mins, 480 mins (*limited to the intraveneous route).
The hydrocortisone was dosed by radioimmunoassay method (Cortisolo Kit, Biodata, cod. 10394) using iodate tracing. […] The linearity of the method comes between 1 and 1000 ng/ml. The observation limit is 1 ng/ml.
The dosage of the cortisolemia in the rat is not influenced either by the base levels or by the circadian rhythms of this hormone, as the metabolic pattern of the endogenous glucocorticoid hormones in the rat, leads to the production of corticosterone and not cortisol (see E. L. Green: Biology of the laboratory mouse.)
In Table 3 are reported the results of the average plasma levels of hydrocortisone, after i.v. and s.c. injection (1 and 2 mg/kg). […] In Table 4 are reported the pharmacokinetic parameters of cortisol calculated graphically from the plasmatic decline curves. In Table 3 are reported the average levels of cortisol after subcutaneous administration of the three HYC derivatives at doses of 6.5 and 13 mg/kg (corresponding to about 1 and 2 mg/kg in hydrocortisone base). In Table 4 are reported the pharmacokinetic parameters relative to cortisol calculated graphically with the method of residues from the plasma absorption curve of the three HYC products.

[3] = 10 days from start of phlogosis
[4] = 12 days from start of phlogosis
[5] = 14 days from start of phlogosis
[6] = 16 days from start of phlogosis

Row | Molecule | eyes without signs of phlogosis out of the total number of eyes treated ([1]; 2 days from start of phlogosis) [%] | eyes without signs of phlogosis out of the total number of eyes treated ([1]; 4 days from start of phlogosis) [%] | eyes without signs of phlogosis out of the total number of eyes treated ([1]; 6 days from start of phlogosis) [%] | eyes without signs of phlogosis out of the total number of eyes treated ([1]; 8 days from start of phlogosis) [%] | eyes without signs of phlogosis out of the total number of eyes treated [1, 3] [%] | eyes without signs of phlogosis out of the total number of eyes treated [1, 4] [%] | eyes without signs of phlogosis out of the total number of eyes treated [1, 5] [%] | eyes without signs of phlogosis out of the total number of eyes treated [1, 6] [%] | antiinflammatory activity (in words) [1] | linearity of kinetics (in words) ([2]; cortisol plasma kinetics, dose dependence) | Cmax (in words) ([2]; rat, in vivo) | Tmax ([2]; rat, in vivo, sc) [min] | AUC at 8 h ([2]; rat, in vivo, sc, 1 mg/kg) [ng·h/mL] | Tmax ([2]; rat, in vivo, sc, 1 mg/kg) [min] | bioavailability ([2]; rat, in vivo, sc, 1 mg/kg) [%] | half-life ([2]; rat, in vivo, sc, 1 mg/kg) [min] | k el ([2]; rat, in vivo, sc, 1 mg/kg) [s⁻¹]
1 | (mixed ethanol and cortisone ester (C21) of hyaluronic acid (HY) [HYC4] | 0.0 | 0.0 | 25.0 | 50.0 | 50.0 | 100.0 | 100.0 | 100.0 | most efficient of these derivatives | – | – | – | – | – | – | – | –
2 | C[C@]12CCC(=O)C=C1CC[C@@H]1[C@@H]2[C@@H](O)C[C@@]2(C)[C@H]1CC[C@]2(O)C(=O)CO [Hydrocortisone, hydrocortisone, reference compound] | 0.0 | 0.0 | 0.0 | 25.0 | 25.0 | 50.0 | 100.0 | 100.0 | – | linear | the same as the i.v. route levels at the same dose | ~30 | 192 | 30 | 70.3 | 270 | 4.17e-05
3 | C[C@]12CCC(=O)C=C1CC[C@@H]1[C@@H]2C(=O)C[C@@]2(C)[C@H]1CC[C@]2(O)C(=O)CO [Cortisone, cortisone, reference compound] | 0.0 | 0.0 | 0.0 | 0.0 | 25.0 | 50.0 | 100.0 | 100.0 | – | – | – | – | – | – | – | – | –
4 | C[C@]12CCC(=O)C=C1CC[C@H]1[C@@H]3CC[C@](O)(C(=O)CO)[C@@]3(C)C[C@H](O)[C@@]12F [Fluorocortis., 9 fluorohydrocortisone, reference compound] | 0.0 | 0.0 | 0.0 | 0.0 | 25.0 | 50.0 | 100.0 | 100.0 | – | – | – | – | – | – | – | – | –
5 | (mixed) ethanol and fluorocortisone ester (C21) of hyaluronic acid (HY) [HYC6] | 0.0 | 0.0 | 25.0 | 50.0 | 50.0 | 100.0 | 100.0 | 100.0 | most efficient of these derivatives | – | – | – | – | – | – | – | –
6 | (partial) cortisone ester C21) of hyaluronic acid (HY) [HYC1] | 0.0 | 0.0 | 0.0 | 25.0 | 50.0 | 50.0 | 100.0 | 100.0 | – | – | – | – | – | – | – | – | –
7 | (partial) fluorocortisone ester (C21) of hyaluronic acid (HY) [HYC3] | 0.0 | 0.0 | 0.0 | 25.0 | 25.0 | 100.0 | 100.0 | 100.0 | – | – | – | – | – | – | – | – | –
8 | (partial and mixed) ethanol and cortisone ester of hyaluronic acid (HY) [HYC7] | 0.0 | 0.0 | 0.0 | 25.0 | 50.0 | 100.0 | 100.0 | 100.0 | – | – | – | – | – | – | – | – | –
9 | (partial and mixed) ethanol and fluorocortisone esters (C21) of hyaluronic acid (HY) [HYC9] | 0.0 | 0.0 | 0.0 | 25.0 | 25.0 | 50.0 | 100.0 | 100.0 | – | – | – | – | – | – | – | – | –
